Counter-ions that a name gives are not always drawn.

IC50 data for 32 molecules are collected here from patent US20130225548A1, “Pyridine Derivative and Medicinal Agent” (NIPPON SHINYAKU CO., LTD., priority 2010, published 2013).

The target of the assay is T1, Syk tyrosine kinase (Homo sapiens, UniProt P43405).
T1 construct: purchased Carna Biosciences, Inc
The assay is described as follows: Test for Syk tyrosine kinase inhibitory activity (ELISA). The assay is classed as biochemical. As to conditions: Syk tyrosine kinase (Carna Biosciences), 25 μM ATP in substrate solution, 30° C. 1 hour, n=2; read-out: Evaluation (IC50, concentration inhibiting the tyrosine kinase activity at 50%). Put shortly: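 Syk kinase (0.025 nM stock before addition) with 625 nM biotinylated peptide and 25 μM ATP (substrate-solution levels) in Tris pH 7.5, MgCl2, DTT; 1 h at 30 °C on streptavidin plates. Phosphotyrosine detected by HRP anti-pTyr antibody, TMB, A450; IC50 by non-linear regression.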
A general note: An ELISA detects its analyte on a solid surface through an enzyme-linked reagent.
With `N#Cc1ccnc(Nc2cc(C3CC3)cc(-c3cncc(N4CCCN(C(N)=O)CC4)c3)n2)c1` [Example 69, 4-{6-[(4-cyanopyridin-2-yl)amino]-4-cyclopropyl-2,3′-bipyridin-5′-yl}-1,4-diazepane-1-carboxamide hydrochloride], the IC50 is 5 to 50 nM.

For `N#Cc1ccnc(Nc2cc(C3CC3)cc(-c3ccc(N4CC[C@@H](O)C4)nc3)n2)c1` [Example 22, 2-({4-cyclopropyl-6′-[(3R)-3-hydroxypyrrolidin-1-yl]-2,3′-bipyridin-6-yl}amino)pyridine-4-carbonitrile hydrochloride], the IC50 lay within 5 to 50 nM.

For the molecule `CC(=O)N[C@H]1CCN(c2ccc(-c3cc(C4CC4)cc(Nc4cc(C#N)ccn4)n3)cn2)C1` [Example 42, N-[(3S)-1-{6-[(4-cyanopyridin-2-yl)amino]-4-cyclopropyl-2,3′-bipyridin-6′-yl}pyrrolidin-3-yl]acetamide hydrochloride], the IC50 is 50 to 500 nM.

In the case of `N#Cc1ccnc(Nc2cc(C3CC3)cc(-c3ccc4ccnc(N5CC(O)C5)c4c3)n2)c1` [Example 166, 2-({4cyclopropyl-6-[1-(3-hydroxyazetidin-1-yl)isoquinolin-7-yl]pyridin-2-yl}amino)pyridine-4-carbonitrile hydrochloride], the IC50 lay within 5 to 50 nM.

Turning to `CN(C)C(=O)CCn1cnc2ccc(-c3cc(C4CC4)cc(Nc4cc(C#N)ccn4)n3)cc21` [Example 125, 3-(6-{6-[(4-cyanopyridin-2-yl)amino]-4-cyclopropylpyridin-2-yl}-1H-benzimadazol-1-yl)-N,N-dimethylpropanamide hydrochloride], the IC50 is 50 to 500 nM.

Consider `N#Cc1ccnc(Nc2cc(C3CC3)cc(-c3ccc(N4CCS(=O)(=O)CC4)nc3)n2)c1` [Example 3, 2-{[4-cyclopropyl-6′-(1,1-dioxidethiomorpholin-4-yl)-2,3′-bipyridin-6-yl]amino}pyridine-4-carbonitrile hydrochloride], for which the IC50 was less than 5 nM.

`Cc1ccc(-c2cc(C3CC3)cc(Nc3cc(C#N)ccn3)n2)cn1` [Example 54, 2-[(4-cyclopropyl-6′-methyl-2,3′-bipyridin-6-yl)amino]pyridine-4-carbonitrile hydrochloride]: the IC50 lay within 50 to 500 nM.

As for `N#Cc1ccnc(Nc2cc(C3CC3)cc(-c3ccc(N4CC(O)C4)nc3)n2)c1` [Example 6, 2-{[4-cyclopropyl-6′-(3-hydroxyazetidin-1-yl)-2,3′-bipyridin-6-yl]amino}pyridine-4-carbonitrile hydrochloride], the IC50 lay within 5 to 50 nM.

Turning to `CN1CCCN(c2ccc(-c3cc(C4CC4)cc(Nc4cc(C#N)ccn4)n3)cn2)CC1` [Example 38, 2-{[4-cyclopropyl-6′-(4-methyl-1,4-diazepan-1-yl)-2,3′-bipyridin-6-yl]amino}pyridine-4-carbonitrile dihydrochloride], the IC50 was 5 to 50 nM.

`N#Cc1ccnc(Nc2cc(C3CC3)cc(-c3ccc(CN4CCNC(=O)C4)cc3)n2)c1` [Example 80, 2-[(4-cyclopropyl-6-{4-[(3-oxopiperazin-1-yl)methyl]phenyl}pyridin-2-yl)amino]pyridine-4-carbonitrile hydrochloride]: the IC50 lay in the range of 50 to 500 nM.

On to “2-({4-cyclopropyl-6-[2-ethyl-1-(trans-4-hydroxycyclohexyl)-1H-benzimidazol-6-yl]pyridin-2-yl}amino)pyridine-4-carbonitrile hydrochloride [Example 157]”, for which the IC50 is less than 5 nM.

On to `N#Cc1ccnc(Nc2cc(C3CC3)cc(-c3ccc(N4CCCC4=O)nc3)n2)c1` [Example 53, 2-{[4-cyclopropyl-6′-(2-oxopyrrolidin-1-yl)-2,3′-bipyridin-6-yl]amino}pyridine-4-carbonitrile hydrochloride], for which the IC50 was 50 to 500 nM.

In the case of `N#Cc1ccnc(Nc2cc(C3CC3)cc(-c3cncc(N4CCC[C@H](O)C4)c3)n2)c1` [Example 112, 2-({4-cyclopropyl-5′-[(3S)-3-hydroxypiperidin-1-yl]-2,3′-bipyridin-6-yl}amino)pyridine-4-carbonitrile hydrochloride], the IC50 is less than 5 nM.

Regarding `N#Cc1ccnc(Nc2cc(C3CC3)cc(-c3cncc(N4CCCNCC4)c3)n2)c1` [Example 98, 2-{[4-cyclopropyl-5′-(1,4-diazepan-1-yl)-2,3′-bipyridin-6-yl]amino}pyridine-4-carbonitrile hydrochloride], the IC50 was less than 5 nM.

As for `CN(C)CCOc1cncc(-c2cc(C3CC3)cc(Nc3cc(C#N)ccn3)n2)c1` [Example 107, 2-({4-cyclopropyl-5′-[2-(dimethylamino)ethoxy]-2,3′-bipyridin-6-yl}amino)pyridine-4-carbonitrile hydrochloride], the IC50 was in the range of 5 to 50 nM.

In the case of `CN(Cc1cncc(-c2cc(C3CC3)cc(Nc3cc(C#N)ccn3)n2)c1)C1CCNCC1` [Example 92, 2-[(4-cyclopropyl-5′-{[N-methyl-N-(piperidin-4-yl)amino]methyl}-2,3′-bipyridin-6-yl)amino]pyridine-4-carbonitrile hydrochloride], the IC50 was less than 5 nM.

Take `N#Cc1ccnc(Nc2cc(C3CC3)cc(-c3ccc4ncn(Cc5ccc(=O)[nH]c5)c4c3)n2)c1` [Example 174, 2-({4-cyclopropyl-6-[1-[(6-oxo-1,6-dihydropyridin-3-yl)methyl]-1H-benzimidazol-6-yl}pyridin-2-yl)amino]pyridine-4-carbonitrile hydrochloride]: the IC50 was 5 to 50 nM.

Consider `N#Cc1ccnc(Nc2cc(C3CC3)cc(-c3ccc4ncn([C@H]5CC[C@@H](O)CC5)c4c3)n2)c1` [Example 145, 2-({4-cyclopropyl-6-[1-(cis-4-hydroxycyclohexyl)-1H-benzimidazol-6-yl]pyridin-2-yl}amino)pyridine-4-carbonitrile hydrochloride], for which the IC50 fell in the range of 5 to 50 nM.

With `N#Cc1ccnc(Nc2cc(C3CC3)cc(-c3cnc(N4CCC(O)CC4)nc3)n2)c1` [Example 35, 2-({4-cyclopropyl-6-[2-(4-hydroxypiperidin-1-yl)pyrimidin-5-yl]pyridin-2-yl}amino)pyridine-4-carbonitrile hydrochloride], the IC50 was 50 to 500 nM.

Take `N#Cc1ccnc(Nc2cc(C3CC3)cc(-c3ccc(N4CCC[C@@H]4C(N)=O)nc3)n2)c1` [Example 47, (R)-1-{6-[(4-cyanopyridin-2-yl)amino]-4-cyclopropyl-2,3′-bipyridin-6′-yl}pyrrolidine-2-carboxamide hydrochloride]: the IC50 was 50 to 500 nM.

For `N#Cc1ccnc(Nc2cc(C3CC3)cc(-c3cncc(COC4CCNCC4)c3)n2)c1` [Example 91, 2-({4-cyclopropyl-5′-[(piperidin-4-yloxy)methyl]-2,3′-bipyridin-6-yl}amino)pyridine-4-carbonitrile hydrochloride], the IC50 was less than 5 nM.

As for `N#Cc1ccnc(Nc2cc(C3CC3)cc(-c3ccc4ncn([C@H]5CC[C@H](C#N)CC5)c4c3)n2)c1` [Example 176, 2-({6-[1-(trans-4-cyanocyclohexyl)-1H-benzimidazol-6-yl]-4-cyclopropylpyridin-2-yl}amino)pyridine-4-carbonitrile hydrochloride], the IC50 was 5 to 50 nM.

In the case of `N#Cc1ccnc(Nc2cc(C3CC3)cc(-c3ccc(N)nc3)n2)c1` [Example 18, 2-[(6′-amino-4-cyclopropyl-2,3′-bipyridin-6-yl)amino]pyridine-4-carbonitrile hydrochloride], the IC50 was 5 to 50 nM.

Take `N#Cc1ccnc(Nc2cc(C3CC3)cc(-c3cncc(NC4CCN(C(N)=O)CC4)c3)n2)c1` [Example 77, 4-({6-[(4-cyanopyridin-2-yl)amino]-4-cyclopropyl-2,3′-bipyridin-5′-yl}amino)piperidine-1-carboxamide hydrochloride]: the IC50 lay in the range of 5 to 50 nM.

For `N#Cc1ccnc(Nc2cc(C3CC3)cc(-c3ccc(N4CCCNCC4)nc3)n2)c1` [Example 32, 2-{[4-cyclopropyl-6′-(1,4-diazepan-1-yl)-2,3′-bipyridin-6-yl]amino}pyridine-4-carbonitrile dihydrochloride], the IC50 lay within 5 to 50 nM.

In the case of `N#Cc1ccnc(Nc2cc(C3CC3)cc(-c3ccc(N4CCC(O)CC4)nc3)n2)c1` [Example 20, 2-{[4-cyclopropyl-6′-(4-hydroxypiperidin-1-yl)-2,3′-bipyridin-6-yl]amino}pyridine-4-carbonitrile hydrochloride], the IC50 was 5 to 50 nM.

In the case of `N#Cc1ccnc(Nc2cc(C3CC3)cc(-c3ccc(N4CCOCC4)nc3)n2)c1` [Example 1, 2-{[4-cyclopropyl-6′-(morpholin-4-yl)-2,3′-bipyridin-6-yl]amino}pyridine-4-carbonitrile hydrochloride], the IC50 fell in the range of 5 to 50 nM.

Turning to “2-({6-[1-(4-cyanopiperidin-1-yl)isoquinolin-7-yl]-4-cyclopropylpyridin-2-yl}amino)pyridine-4-carbonitrile hydrochloride [Example 170]”, the IC50 fell in the range of 5 to 50 nM.

As for `N#Cc1ccnc(Nc2cc(C3CC3)cc(-c3ccc(N4CCSCC4)nc3)n2)c1` [Example 27, 2-{[4-cyclopropyl-6′-(thiomorphoiln-4-yl)-2,3′-bipyridin-6-yl]amino}pyridine-4-carbonitrile hydrochloride], the IC50 fell in the range of 5 to 50 nM.

As to `N#Cc1ccnc(Nc2cc(C3CC3)cc(-c3ccc(N4CC[C@@H](NC(N)=O)C4)nc3)n2)c1` [Example 45, 1-[(3R)-1-{6-[(4-cyanopyridin-2-yl)amino]-4-cyclopropyl-2,3′-bipyridin-6′-yl}pyrrolidin-3-yl]urea hydrochloride], the IC50 was in the range of 50 to 500 nM.

For the molecule `CC(C)(O)Cn1cnc2cc(-c3cc(C4CC4)cc(Nc4cc(C#N)ccn4)n3)ccc21` [Example 118, 2-({4-cyclopropyl-6-[1-(2-hyroxy-2-methylpropyl)-1H-benzimidazol-5-yl]pyridin-2-yl}amino)pyridine-4-carbonitrile hydrochloride], the IC50 lay in the range of 50 to 500 nM.

For the molecule `N#Cc1ccnc(Nc2cc(C3CC3)cc(-c3cccc(CN4CCNCC4)c3)n2)c1` [Example 84, 2-({4-cyclopropyl-6-[3-(piperazin-1-ylmethyl)phenyl]pyridin-2-yl}amino)pyridine-4-carbonitrile hydrochloride], the IC50 is less than 5 nM.
